This note sets out measurements from patent publication US10188634B2, “3-(3H-imidazo[4,5-C]pyridin-2-yl)-1 H-pyrazolo[4,3-B]pyridines and therapeutic uses thereof” (Samumed, LLC, priority 2015, dated 2019).

Test [1] has as its system Wnt activity (Sp5-Luc reporter, human Sp5 promoter with eight TCF/LEF binding sites) in SW480 colon carcinoma cells. The experiment in a line: Screening assay for Wnt activity: Sp5-Luc reporter gene assay in SW480 cells. Format: cell-based. To be noted: for inhibition at 10 µM: read-out: percent inhibition at 10 μM (given for EC50 of >10 μM); for EC50: 10-point dose-response starting from 10 μM, overnight incubation. Summed up:
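SW480 cells stably carrying Sp5-Luc reporter (eight TCF/LEF sites) plated at 4,000/well in 1% FBS medium with compound (10-point 1:3 series from 10 μM, 0.1% DMSO) overnight at 37 °C. BrightGlo luminescence normalized to DMSO; EC50 by four-parameter fit, else % inhibition at 10 μM.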
In general terms: Reporter assays use an easily measured gene product as a stand-in for the process of interest.

In test [2] the test system is primary human mesenchymal stem cells (hMSCs). Briefly: Induction of chondrogenesis in primary human mesenchymal stem cells (hMSCs), nodule imaging with Rhodamine B / Nile Red. The class given is cell-based. To be noted: for Emax: hMSCs chondrogenesis, TGF-β3 (10 ng/mL) as positive control, read-out: Max. Activity as % TGF-β3 activity; for EC50: hMSCs, concentration required to induce 50% levels of chondrogenesis vs TGF-β3 positive control, read-out: Conc (nM) of 50% TGF-β3 activity. The procedure, abridged: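 Passage 3-6 hMSCs cultured 6 days at 37° C in incomplete chondrogenic induction medium with compound (2700-10 nM, 96-well; 5000-2.2 nM, 384-well; 0.03% DMSO), TGF-β3 10 ng/mL as positive control. Fixed nodules stained with Rhodamine B/Nile Red, imaged at 531/625 nm; nodule area normalized to DMSO wells for EC50, maximum activity and dose at maximum.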

Usually inhibition stands for the share of the control response that was lost under treatment. As to `Fc1ccc(-c2cncc3[nH]c(-c4n[nH]c5ccc(-c6cncnc6)nc45)nc23)cc1` [Compound 55, 3-(7-(4-Fluorophenyl)-3H-imidazo[4,5-c]pyridin-2-yl)-5-(pyrimidin-5-yl)-1H-pyrazolo[4,3-b]pyridine], in test [1], the inhibition at 10 µM was 18% and the EC50 was > 10 µM. Also, in test [2], the Emax is 125% and the EC50 was 100 nM.

Consider `CCCC(=O)Nc1cncc(-c2ccc3[nH]nc(-c4nc5c(-c6cc(F)cc(CNS(C)(=O)=O)c6)cncc5[nH]4)c3n2)c1` [Compound 465, N-(5-(3-(7-(3-Fluoro-5-(methylsulfonamidomethyl)phenyl)-3H-imidazo[4,5-c]pyridin-2-yl)-1H-pyrazolo[4,3-b]pyridin-5-yl)pyridin-3-yl)butyramide], for which, in test [1], the inhibition at 10 µM stood at 28% and the EC50 is > 10 µM. The Emax in test [2] stood at 39%.

For `CC(C)C(=O)Nc1cncc(-c2ccc3[nH]nc(-c4nc5c(N6CCN(C)CC6)cncc5[nH]4)c3n2)c1` [Compound 233, N-(5-(3-(7-(4-Methylpiperazin-1-yl)-3H-imidazo[4,5-c]pyridin-2-yl)-1H-pyrazolo[4,3-b]pyridin-5-yl)pyridin-3-yl)isobutyramide], in test [1], the inhibition at 10 µM is 6.2% and the EC50 is > 10 µM. Also, the Emax in test [2] worked out at 47%.

Turning to `CN(C)Cc1cncc(-c2ccc3[nH]nc(-c4nc5c(-c6cccs6)cncc5[nH]4)c3n2)c1` [Compound 321, N,N-dimethyl-1-(5-(3-(7-(thiophen-2-yl)-3H-imidazo[4,5-c]pyridin-2-yl)-1H-pyrazolo[4,3-b]pyridin-5-yl)pyridin-3-yl)methanamine], in test [1], the inhibition at 10 µM turned out to be 19.2% and the EC50 was > 10 µM. In test [2], the Emax stood at 79% and the EC50 came out at 10 nM.
